Residues, ends and D or L forms follow the SMILES beside them. *: point of attachment. Tos = Cc1ccc(S(=O)(=O)*)cc1

One may read the melting point as the temperature of the solid-liquid transition.

Take `Cc1nn(-c2ccc(Cl)cc2)c(=O)[nH]1`: the melting point lay within 218 to 219 °C. For `N#Cc1cc(N)ccc1N1CCN(C2CCOCC2)CC1` the value was 162 °C; for `CCC(CC)N(C[C@@H]1CCC[C@H](CN(C(=O)Nc2ccc(N(C)C)cc2)C(CC)CC)C1)C(=O)Nc1ccc(N(C)C)cc1`, 157 to 160 °C. `CC(C)(C(=O)c1ccc(N2CCOCC2)cc1)N1CCOCC1`: the melting point fell in the range of 114 to 116 °C. On to `CN(C)c1ccc(C2(c3ccc(N(C)C)cc3N(C)C)OC(=O)c3ccccc32)cc1` (configuration not stated), for which the melting point was 190 to 194 °C. Compound `COc1ccc(P(=O)(c2ccccc2)c2ccccc2)c(I)c1OC` had a melting point of 178 to 180 °C. In turn, `CC(=O)c1cc2c(Sc3ccc(C)cc3)cncc2s1` returned a melting point of 134 to 138 °C.

On to `CCCCCCCNC(=O)Nc1ccccc1C(=O)NCCCC1CCN(C(c2ccccc2)c2ccccc2)C1` (configuration not stated), for which the melting point lay within 109 to 111 °C.

Take `COCc1noc(-c2ncn3c2[C@@H]2CCCN2C(=O)c2c(Cl)cccc2-3)n1`: the melting point was in the range of 168 to 170 °C. On to `Cn1cc(-c2ccc(Br)cc2)c(=O)c(-c2cccc(C(F)(F)F)c2)c1`, for which the melting point fell in the range of 144 to 146 °C. `Cc1nc(-n2ccc3c(OCc4ccccc4)cccc3c2=O)sc1C(=O)NCc1ccccc1` registered a melting point of 225 to 226 °C. For `OCc1cn(-c2ccc(Cl)cc2)cn1` the value was 115 to 116 °C; for `O=C(CCl)NC(c1ccccc1)C(O)c1ccccc1` (configuration not stated), 166 to 169 °C. Regarding `CCc1nc2c(C)cc(C)nc2n1Cc1ccc(C(c2ccccc2)C(C(=O)O)C(=O)O)cc1` (configuration not stated), the melting point was in the range of 137 to 142 °C. The compound `CC(=O)N(C)CC(=O)c1ccc2c(c1)OCO2` gave a melting point of 99 to 101 °C.

On to `Cc1ccc(NC(=O)c2cc(Cl)c(O)c(Cl)c2)c(O)c1`, for which the melting point lay in the range of 246 to 247 °C. Consider `O=C1C=CC(O)(c2cc3cc(F)ccc3n2S(=O)(=O)c2ccccc2)C=C1`, for which the melting point lay in the range of 166 to 167 °C.

In turn, `Cc1c(C2=CCC(Cc3ccccc3)(N(C)C)CC2)[nH]c2ccc(F)cc12` (configuration not stated) yielded a melting point of 62 to 65 °C. Compound `CC(=O)OCC1OC(C2=NNC(N)(c3ccc(Cl)c(Cl)c3)O2)C(OC(C)=O)C(OC(C)=O)C1OC(C)=O` (configuration not stated) returned a melting point of 180 to 181 °C. As to `CSCc1cc([N+](=O)[O-])ccc1N1C(=O)c2ccc(Cl)cc2C1=O`, the melting point lay within 112 to 115 °C. The same measure for `CCN1CC(c2ccccc2)=C(OCCN2CCCCC2)C1=O`: 120 °C; for `O=C(O)COc1ccc(C(=O)O)c(Cl)c1Cl`: above 250 °C; for `O=c1ccc(-c2c(-c3ccccc3)nn3ccccc23)nn1CC1CCCCN1` (configuration not stated): 141 to 142 °C. Take `Cc1cc(NC(=O)C=Cc2ccccc2)c(NC(=O)C=Cc2ccccc2)cc1C`: the melting point was found to be 244 °C.

Regarding `CCCc1c(OCCCCCC(=O)c2ccc(OC)c(OC)c2)ccc(C(=O)OC)c1O`, the melting point was in the range of 117 to 119 °C. For `COc1ccc(C(=O)Nc2ccc(F)cc2)cc1NS(=O)(=O)c1ccc(C#N)cc1` the value was 131 to 135 °C; for `CN(CCCc1ccccc1)[C@H]1CC[C@H](c2ccc3[nH]c(=O)oc3c2)CC1`, 58 to 62 °C. In turn, `O=C(NCc1cccnc1)c1ccc2n1Cc1ccccc1N(C(=O)c1ccc(-c3ccccc3Cc3nnn[nH]3)cc1)C2` returned a melting point of 164 to 167 °C. For `CCn1c(=O)c2conc2n(C)c1=O` the value was 87 to 88 °C; for `CC(O)C1CCCCCCCCCCC1` (configuration not stated), 35 °C. The same measure for `Cc1ccc(S(=O)(=O)N2CCC[C@H]2C(=O)N[C@@H](C)C(=O)O)cc1` (Tos-Pro-Ala-OH): 160 to 162 °C; for `COC(=O)C1=Cc2cc(Cl)ccc2OC1`: 106 to 109 °C; for `O=C(Nc1ccc(N2CCOCC2=O)cc1)[C@H]1CCCN1C(=O)Nc1ccc(Cl)cc1`: 228 °C. For the compound `Cc1ccc(C2CCN(C(=O)Nc3ccc4nc(CN(C(C)C)C(C)C)ccc4c3)CC2)cc1`, the melting point is 184 to 186 °C. Turning to `O=c1c(-c2cc[nH]n2)coc2ccccc12`, the melting point fell in the range of 141 to 142 °C. The same measure for `O=Cc1nn(-c2cccc(C(F)(F)F)c2)c2c1CCCC2`: 88 °C; for `Nc1ccc2c3c(cccc13)C(=O)N2`: 240 to 242 °C. `O=C(c1nnc(-c2ccccc2)o1)N1CC(Oc2ccc(CN3CC(C(F)F)C3)cc2)C1` yielded a melting point of 147 °C. With `CCOC(=O)c1cc2cc(Oc3ccc(S(C)(=O)=O)cc3)cc(O)c2[nH]1`, the melting point is 197 to 198 °C.

`OCCCc1ccc(-c2ccc(CCCO)c(C(F)(F)F)c2)cc1C(F)(F)F` showed a melting point of 87.5 to 90 °C. `CCC(C#N)CCn1nc(C(N)=O)c2ccccc21` (configuration not stated) showed a melting point of 178 to 180 °C. Consider `Cn1c(CC#N)ccc1C(=O)Cl`, for which the melting point is 78 to 80 °C. With `CC1=C(C(=O)OCCC#N)C(c2c(F)cccc2Cl)C(C(=O)OC2CCCC2)=C(C)N1` (configuration not stated), the melting point fell in the range of 135 to 136 °C. As for `COc1cc2nc(C)c3c4cc5c(cc4ccc3c2cc1OC)OCO5`, the melting point was above 250 °C. The same measure for `COC(=O)C(=O)c1ccc(OCCCC(=O)c2ccc3ccccc3c2)cc1`: 86 to 87 °C.

Regarding `O=C(CCl)Nc1ccc2c(c1NC(=O)CCl)C(=O)c1ccccc1C2=O`, the melting point is 254 to 255 °C. In turn, `CN1C(=O)C(c2ccc(OC(F)F)cc2)(c2cccnc2)N=C1N` (configuration not stated) came in with a melting point of 173 to 175 °C. In turn, `OCCn1c2ccccc2c2c(N3CCCC3)nc(N3CCCC3)nc21` had a melting point of 110 °C.

In turn, `O=Cc1ccc2cccc3c4cccc5cccc(c1c23)c54` gave a melting point of 232 to 234 °C.

As to `O=C(c1ccc(Br)cc1)N1CC(=O)N(CCc2ccccc2)C(=O)C1`, the melting point lay in the range of 110 to 112 °C. Compound `c1ccc(CN(Cc2ccccc2)c2cccc3c2ncc2nc4n(c23)CCC4)cc1` registered a melting point of 275 to 277 °C.

The compound `COc1ccc(C(=O)c2ccc(OCCBr)cc2)cc1` displayed a melting point of 112 to 113 °C. The same measure for `Cc1oc(-c2ccccc2)nc1COc1ccc2oc(/C=C/CO)cc2c1`: 145 to 146 °C; for `CC(C)C[C@H](NC(=O)[C@@H](O)[C@@H](Cc1ccc(S(C)(=O)=O)cc1)NC(=O)OCc1ccccc1)C(=O)OCc1ccccc1`: 136 to 138 °C. For `Cc1nc2cccc(OCC(C)(C)NC(=O)CC(C)C)c2c(N)c1C(=O)O` the value was 195 to 198 °C.

`FC(F)(F)c1cccc(CSc2nnc(-c3ncnc4[nH]ccc34)o2)c1` registered a melting point of 199 to 200 °C.

In the case of `Cc1cccc(OC(C)(C)C(=O)O)c1C`, the melting point lay in the range of 71 to 73 °C. `Cn1c2cc(Cl)ccc2c2oc(C(=O)Cl)cc21`: the melting point lay in the range of 154 to 156 °C.

For the compound `CCCN(CCN1CCN(C(=O)c2ccc3[nH]ccc3c2)CC1)C1CCc2ccc(O)cc2C1` (configuration not stated), the melting point was in the range of 194 to 199 °C. `N#Cc1cccc(-c2ccc3c(Cl)cnc(Cl)c3c2)c1`: the melting point was above 300 °C. In turn, `O=C(Nc1cccc(C(F)(F)F)c1)c1cccnc1NCCc1ccncc1` yielded a melting point of 128 to 138 °C. The same measure for `O=C(Nc1ccccc1)OCC#Cc1cc(F)c2ncc(C(=O)NCc3ccc(Cl)cc3)c(O)c2c1`: 227 to 229 °C; for `O=[N+]([O-])c1ccc(S(=O)(=O)Nc2cccc(F)c2)c([N+](=O)[O-])c1`: 172 to 173 °C; for `CCCCn1c(=O)n(CCC)c(=O)c2c(N)n(CCCl)nc21`: 118 to 121 °C. `O=S(=O)(Nc1cccnc1Cl)C(F)(F)F` yielded a melting point of 120 to 122 °C. As to `CCCn1nc(CC)c(C(=O)OC)c1Cc1ccc(-c2ccccc2S(N)(=O)=O)cc1`, the melting point amounted to 144 °C.

Turning to `CCCCCCCCCCCCCCCCCCOc1cc(C(=O)O)cc(C(=O)OC)c1`, the melting point was 81 to 83 °C. Turning to `N#Cc1ccc(Oc2ccccc2)cc1Oc1ccccc1`, the melting point is 85 to 86 °C. Regarding `Cn1cc(-c2cccc(F)c2)c(=O)c(-c2cccc(Cl)c2)c1`, the melting point is 145 to 146 °C. With `CN(C)c1ccc(NC(=O)N(Cc2ccccc2)C[C@H]2CCC[C@H](CN(Cc3ccccc3)C(=O)Nc3ccc(N(C)C)cc3)C2)cc1` (relative stereo), the melting point is 129 to 133 °C. Take `COc1ccc(-c2ocnc2-c2cc(OC)c(O)c(OC)c2)cc1O`: the melting point lay in the range of 144 to 146 °C. `CCOc1c(C#CCO)cc(C(C)(C)C)cc1C(C)(C)C`: the melting point lay in the range of 82 to 84 °C. For `CCOC(=O)NCCCCc1ccccc1`, the melting point lay in the range of 60 to 61 °C. The compound `CC(C)N1CCN(c2cccc(N)c2)C(=O)C1` came in with a melting point of 114 to 115 °C. `COc1cc(OCC(=O)O)c(C)cc1SCc1ccc(OCc2ccc(C(F)(F)F)cc2)cc1` came in with a melting point of 145 °C.

For the compound `O=C(O)c1ccc(OCc2ccccc2)cc1OCc1ccccc1`, the melting point is 123 to 124 °C. For `Cc1cccc(C)c1-c1cc2cnc(N)nc2n(C)c1=N` the value was 197 to 198 °C. The same measure for `CC1(C)Oc2ccc(C#N)cc2C(NC(=O)C(N)c2ccccc2)C1O` (configuration not stated): 109 to 111 °C; for `CCC(C)C(NC(=O)OCc1ccccc1)C(=O)NC(Cc1c[nH]c2ccccc12)C(=O)OC` (configuration not stated): 152 to 155 °C; for `CCOC(=O)c1c(C(F)(F)F)nc(C(F)F)c(C(=O)OC)c1NC1CC1`: 68 to 69.5 °C. The same measure for `COc1ccc2c(c1)CCC1C2CCC2(C)C(=O)CC(C)(C)C12` (configuration not stated): 145 to 148 °C. `CCc1c(-c2ccc(OCc3ccccc3)cc2)c2c(C(=O)O)c(C(=O)O)c3c(OC)ccc1n32` displayed a melting point of 198 to 200 °C.

The compound `CC(=O)c1ccccc1NC(=O)C(Cl)(Cl)Cl` yielded a melting point of 113 °C. Take `CC(=O)C1=C(C)NC(C)=C(c2nc(CN(C)Cc3ccccc3)no2)C1c1cccc([N+](=O)[O-])c1` (configuration not stated): the melting point lay within 138 to 139 °C. On to `CCSc1c(C=NOCc2ccccc2)c(=O)n(C)c(=O)n1C`, for which the melting point was 76 °C. With `CN1CCN(c2ccc(-c3cc(-c4c(-c5ccccn5)nc5ccccn45)ccn3)cc2)CC1`, the melting point turned out to be 150 °C. `COc1ccc(N2C(=O)CC(Cl)C2=O)cc1` (configuration not stated) came in with a melting point of 142 to 143 °C.

Source of the values: a melting point compilation (Tetko et al.; mined from patent text by program, amines drawn as free bases though some values may be those of a salt).
